Experimental data reported in patent US8507562B2, “Synthesis of (1)-beta-elemene, (-)-beta-elemenal, (-)-beta-elemenol, (-)-beta-elemene fluoride and their analogues, intermediates, and composition and uses thereof” (HYWE Pharmaceuticals, Inc., priority 2004, dated 2013).
Read-outs that look alike come from different tables or passages of the source.

Assays:
[1] = system: human glioma SHG44 (xenograph in brain); experiment: Tumor xenographed in mice brain, survival; format: in vivo, nude mice; settings: for Survival time as % of control (T/C): compared to control
Protocol: Mice model with tumor xenographed in mice brain: Glioma cell line G-422 or SHG44 (log phase) were diluted to 2×10^7/ml in cell culture hood (no bacteria environment). Each mouse was injected with 0.05 ml of tumor cell in its brain. […] The survival time of these mice was recorded in the next 30 days. The life extension was calculated using the following formula: Life Extension Rate=[( […])/Average survival days of control group[×100 Results: […]

[2] = Chronic toxicity study, 28 days i.v.; format: in vivo; settings: Beagle dogs
[3] = system: Non-small-cell lung cancer (NSCLC) cell lines; experiment: Mechanism in NSCLC cells
BEL-7402 cells = BEL-7402 cells after 6 weeks of induction with Elemene at 48.9 ug/ml; cited from earlier work
STTG1 brain tumor = experiment: MTT survival assay; format: cell-based, human
Protocol: (§1) The MTT assay is a commonly used method in evaluation of cell survival, based on the ability of viable cells to convert MTT, a soluble tetrazolium salt [3-(4,5-dimethylthuazole-2-yl)-2,5 diphenyl tetrazolium bromide], into an insoluble formazan precipitate, which is quantitated by spectrophotometry following solubilization in dimethyl sulfoxide (DMSO).
(§2) The cells were then solubilized in 125 μl of DMSO and absorbance readings were taken using a 96-well Opsys MRI Microplate Reader (ThermoLabsystems; Chantilly, Va.). The amount of MTT dye reduction was calculated based on the difference between absorbance at 570 nm and at 630 nm. Cell viability in treated cells was expressed as the amount of dye reduction relative to that of untreated control cells. The wells which contained only medium and 10 μl of MTT were used as blanks for the plate reader. Three sets of experiments were performed in 8-12 wells for each treatment.

[4] = system: human prostate cancer PC-3M
A-172 brain tumor = experiment: MTT survival assay; format: cell-based, human; settings: A172, 72 h
Protocol: as §1, §2
The cells were then solubilized in 125 μl of DMSO and absorbance readings were taken using a 96-well Opsys MRI Microplate Reader (ThermoLabsystems; Chantilly, Va.). The amount of MTT dye reduction was calculated based on the difference between absorbance at 570 nm and at 630 nm. Cell viability in treated cells was expressed as the amount of dye reduction relative to that of untreated control cells. The wells which contained only medium and 10 μI of MTT were used as blanks for the plate reader. Three sets of experiments were performed in 8-12 wells for each treatment.

[5] = system: Colon Cancer Cells HCT-15
Protocol: Cells were maintained at 37° C. in a humidified atmosphere including 5% CO2. […] Drugs were dissolved in 100% DMSO and then diluted in medium for experiments.

human glioma cells = experiment: MTT assay, elemene analogs; format: cell-based
Protocol: as §1, §2

(−)-Beta-elemene
Inhibition Rate % (human colon cancer HCT-8; 12.5 mg/kg/time iv × 10 bid): 38.32% | Tumor Weight (g) X ± SD (human colon cancer HCT-8; 12.5 mg/kg/time iv × 10 bid): 0.928 ± 0.07 g | Inhibition Rate % (human colon cancer HCT-8; 12.5 mg/kg/time iv × 10 bid, listed as β-Elemene): 35.10% | Inhibition Rate % (human colon cancer HCT-8; 25 mg/kg/time iv × 10 bid): 49.49% | Tumor Weight (g) X ± SD (human colon cancer HCT-8; 25 mg/kg/time iv × 10 bid): 0.772 ± 0.05 g | Inhibition Rate % (human colon cancer HCT-8; 25 mg/kg/time iv × 10 bid, listed as β-Elemene): 46.01% | Inhibition Rate % (human colon cancer HCT-8; 50 mg/kg/time iv × 10 bid): 57.15% | Tumor Weight (g) X ± SD (human colon cancer HCT-8; 50 mg/kg/time iv × 10 bid): 0.655 ± 0.08 g | Inhibition Rate % (human colon cancer HCT-8; 50 mg/kg/time iv × 10 bid, listed as β-Elemene): 54.20% | Average Life Span (day) X± SD ([1]; 7.5 mg/kg/time iv × 10 qd): 20.2 ± 1.7 days | Survival time as % of control (T/C) ([1]; 7.5 mg/kg/time iv × 10 qd): 132.84% | Survival time as % of control (T/C) ([1]; 7.5 mg/kg/time iv × 10 qd, listed as β-Elemene): 128.72% | Average Life Span (day) X± SD ([1]; 15 mg/kg/time iv × 10 qd): 21.8 ± 1.9 days | Survival time as % of control (T/C) ([1]; 15 mg/kg/time iv × 10 qd): 140.46% | Survival time as % of control (T/C) ([1]; 15 mg/kg/time iv × 10 qd, listed as β-Elemene): 139.31% | Average Life Span (day) X± SD ([1]; 30 mg/kg/time iv × 10 qd): 23.3 ± 3.6 days | Survival time as % of control (T/C) ([1]; 30 mg/kg/time iv × 10 qd): 150.37% | Survival time as % of control (T/C) ([1]; 30 mg/kg/time iv × 10 qd, listed as β-Elemene): 148.69% | Average Life Span (day) X± SD ([1]; 60 mg/kg/time iv × 10 qd): 25.2 ± 3.1 days | Survival time as % of control (T/C) ([1]; 60 mg/kg/time iv × 10 qd): 159.81% | Survival time as % of control (T/C) ([1]; 60 mg/kg/time iv × 10 qd, listed as β-Elemene): 160.36% | side effects, high dose group ([2]; 75 mg/kg/d i.v., 28 days): nausea, vomiting, appetite loss, weight loss, saliva dripping and other side effects | pathology changes, low and medium dose groups ([2]; 15 and 30 mg/kg/d i.v., 28 days): No significant pathology changes related to drug | non-toxic dose ([2]; i.v., 28 days consecutively): 15 mg/kg | apoptosis [3]: triggered apoptosis | cell cycle effect [3]: arrest NSCLC cells at cell cycle G2-M phase | expression of MDR1 mRNA or P-glycoprotein (P-gp) (BEL-7402 cells): did not express MDR1 mRNA or P-glycoprotein (P-gp) | IC50 (STTG1 brain tumor; STTG1, 24 h): 112 mg/L | IC50 (STTG1 brain tumor; STTG1, 48 h): 115 mg/L | IC50 (STTG1 brain tumor; STTG1, 72 h): 112 mg/L | Inhibition Rate % ([4]; 12.5 mg/kg/time iv × 10 bid): 27.95% | Tumor Weight (g) X ± SD ([4]; 12.5 mg/kg/time iv × 10 bid): 1.16 ± 0.12 g | Inhibition Rate % ([4]; 25 mg/kg/time iv × 10 bid): 34.78% | Tumor Weight (g) X ± SD ([4]; 25 mg/kg/time iv × 10 bid): 1.05 ± 0.07 g | Inhibition Rate % ([4]; 50 mg/kg/time iv × 10 bid): 46.58% | Tumor Weight (g) X ± SD ([4]; 50 mg/kg/time iv × 10 bid): 0.86 ± 0.12 g | IC50 (A-172 brain tumor): 80 mg/L | IC50 [5]: 194 ± 19.3 mg/L | IC50 in human glioma cells (human glioma cells; 24 hr): 95.52 mg/L | IC50 in human glioma cells (human glioma cells; 48 hr): 88.48 mg/L | IC50 in human glioma cells (human glioma cells; 72 hr): 93.34 mg/L
